Measured values from the Kinase Knowledgebase extract (Sharma et al. 2016).
One block for each compound: values may come before it.

Assays:
CDK2 (human) [1] = target: CDK2 (human) (UniProt P24941)
EGFR (human) [2] = target: EGFR (human) (UniProt P00533)
EGFR (human) [3] = target: EGFR (human) (UniProt P00533); details: hn5
EGFR [4] = target: EGFR (UniProt P00533)
[5] = tested on: MAPK14 (sprague-dawley rat); test: p38-mediated TNF-alpha Inhibition (Sprauge-Dawley Rats); details: dose or concentration not given here
PIK3CA (human) [6] = target: PIK3CA (human) (UniProt P42336); test: Inhibition of PIK3CA Kinase Activity (FP Assay)
Chain of PIK3CA (human) (P42336 whole entry, looked up): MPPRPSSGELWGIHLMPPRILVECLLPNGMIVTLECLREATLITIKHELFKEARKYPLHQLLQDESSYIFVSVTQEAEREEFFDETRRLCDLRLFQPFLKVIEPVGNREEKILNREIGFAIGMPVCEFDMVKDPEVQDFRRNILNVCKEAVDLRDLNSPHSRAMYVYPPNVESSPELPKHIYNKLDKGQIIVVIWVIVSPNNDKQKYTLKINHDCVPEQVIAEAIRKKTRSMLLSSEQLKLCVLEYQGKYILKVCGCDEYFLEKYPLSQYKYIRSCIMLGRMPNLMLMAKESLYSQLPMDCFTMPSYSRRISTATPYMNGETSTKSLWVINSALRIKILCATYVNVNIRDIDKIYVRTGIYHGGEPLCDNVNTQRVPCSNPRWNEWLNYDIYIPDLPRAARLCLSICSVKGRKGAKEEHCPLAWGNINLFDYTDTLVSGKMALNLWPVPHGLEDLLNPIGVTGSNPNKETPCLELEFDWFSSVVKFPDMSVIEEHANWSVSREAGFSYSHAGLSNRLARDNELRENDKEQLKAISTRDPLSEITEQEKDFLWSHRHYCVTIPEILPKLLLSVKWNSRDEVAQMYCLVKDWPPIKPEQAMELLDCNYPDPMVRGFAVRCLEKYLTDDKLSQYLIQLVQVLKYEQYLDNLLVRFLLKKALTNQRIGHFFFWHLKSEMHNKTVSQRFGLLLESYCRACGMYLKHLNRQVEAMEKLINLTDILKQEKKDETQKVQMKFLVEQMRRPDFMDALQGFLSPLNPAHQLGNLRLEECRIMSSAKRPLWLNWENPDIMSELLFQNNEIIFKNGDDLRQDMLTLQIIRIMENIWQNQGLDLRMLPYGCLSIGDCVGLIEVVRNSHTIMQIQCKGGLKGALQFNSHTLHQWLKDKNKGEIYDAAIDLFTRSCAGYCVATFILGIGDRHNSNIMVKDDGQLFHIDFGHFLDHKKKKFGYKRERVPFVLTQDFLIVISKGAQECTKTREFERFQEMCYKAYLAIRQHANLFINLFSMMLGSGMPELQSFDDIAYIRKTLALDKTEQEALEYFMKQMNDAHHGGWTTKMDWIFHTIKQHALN

PIK3CG (human) = PIK3CG (human) (UniProt P48736); test: Inhibition of PIK3CG Kinase Activity
EGFR (human) [7] = target: EGFR (human) (UniProt P00533); remark: listed apart in the source
EGFR (human) [8] = target: EGFR (human) (UniProt P00533); details: kb
CDK2 [9] = target: CDK2 (UniProt P24941); test: Enzyme Assay
CDK2 [10] = target: CDK2 (UniProt P24941); test: Enzyme Assay; remark: listed apart in the source
EGFR (human) [11] = target: EGFR (human) (UniProt P00533); remark: listed apart in the source
EGFR (human) [12] = target: EGFR (human) (UniProt P00533); remark: listed apart in the source
EGFR (human) [13] = target: EGFR (human) (UniProt P00533); details: kb; remark: listed apart in the source
ROCK2 (human) [14] = target: ROCK2 (human) (UniProt O75116); test: Enzyme Assay
Chain of ROCK2 (human) (O75116 whole entry, looked up): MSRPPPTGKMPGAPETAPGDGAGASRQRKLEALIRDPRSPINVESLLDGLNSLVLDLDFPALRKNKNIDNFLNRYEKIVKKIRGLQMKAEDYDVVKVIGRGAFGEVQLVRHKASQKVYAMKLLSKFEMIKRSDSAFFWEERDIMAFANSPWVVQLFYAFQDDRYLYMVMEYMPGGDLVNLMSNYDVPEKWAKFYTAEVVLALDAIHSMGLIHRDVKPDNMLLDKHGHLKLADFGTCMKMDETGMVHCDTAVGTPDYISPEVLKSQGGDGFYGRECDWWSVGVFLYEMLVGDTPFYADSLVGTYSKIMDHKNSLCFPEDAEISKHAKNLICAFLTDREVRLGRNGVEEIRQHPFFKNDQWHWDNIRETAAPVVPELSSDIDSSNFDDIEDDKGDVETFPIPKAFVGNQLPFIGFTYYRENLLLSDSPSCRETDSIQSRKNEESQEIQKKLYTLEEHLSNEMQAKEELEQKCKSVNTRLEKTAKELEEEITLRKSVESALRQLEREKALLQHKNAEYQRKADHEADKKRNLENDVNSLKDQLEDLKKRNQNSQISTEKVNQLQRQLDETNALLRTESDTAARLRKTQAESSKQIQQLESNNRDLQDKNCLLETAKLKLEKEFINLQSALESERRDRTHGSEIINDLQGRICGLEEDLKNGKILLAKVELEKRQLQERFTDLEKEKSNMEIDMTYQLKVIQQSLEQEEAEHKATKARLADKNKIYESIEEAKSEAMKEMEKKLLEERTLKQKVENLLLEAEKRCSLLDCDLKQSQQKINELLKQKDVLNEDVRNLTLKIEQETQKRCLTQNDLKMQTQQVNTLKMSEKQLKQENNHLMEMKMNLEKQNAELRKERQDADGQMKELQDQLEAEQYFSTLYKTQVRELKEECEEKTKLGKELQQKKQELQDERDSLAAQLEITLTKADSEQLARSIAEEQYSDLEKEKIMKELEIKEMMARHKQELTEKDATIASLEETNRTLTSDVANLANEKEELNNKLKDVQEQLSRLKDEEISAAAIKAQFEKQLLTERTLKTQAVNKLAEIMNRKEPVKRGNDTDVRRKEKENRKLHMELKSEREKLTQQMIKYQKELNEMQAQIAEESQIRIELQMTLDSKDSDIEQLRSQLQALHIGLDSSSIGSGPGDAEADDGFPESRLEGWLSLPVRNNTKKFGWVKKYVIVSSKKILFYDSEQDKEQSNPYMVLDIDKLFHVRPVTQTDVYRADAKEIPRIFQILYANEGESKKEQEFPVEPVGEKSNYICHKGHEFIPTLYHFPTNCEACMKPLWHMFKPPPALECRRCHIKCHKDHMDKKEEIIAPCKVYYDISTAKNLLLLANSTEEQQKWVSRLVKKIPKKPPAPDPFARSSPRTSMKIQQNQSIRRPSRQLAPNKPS

ROCK2 (human) [15] = target: ROCK2 (human) (UniProt O75116); test: Enzyme Assay; remark: listed apart in the source
MAPK14 (human) [16] = target: MAPK14 (human) (UniProt Q16539); test: p38 --- TNF Inhibition (PBMC cells)
MAPK14 (human) [17] = target: MAPK14 (human) (UniProt Q16539); test: p38 --- IL-1 Inhibition (PBMC cells)
EGFR (human) [18] = target: EGFR (human) (UniProt P00533); details: a431
EGFR [19] = target: EGFR (UniProt P00533); remark: listed apart in the source
MAPK14 (human) [20] = target: MAPK14 (human) (UniProt Q16539); test: Inhibition of MAPK14 Kinase Activity
MAPK14 (human) [21] = target: MAPK14 (human) (UniProt Q16539); test: Inhibition of MAPK14 Kinase Activity; remark: listed apart in the source
ROCK2 (human) [22] = target: ROCK2 (human) (UniProt O75116)
EGFR [23] = target: EGFR (UniProt P00533); remark: listed apart in the source
[24] = target: EGFR (human), P00533 [WT]
EGFR (human) [25] = target: EGFR (human) (UniProt P00533); details: a431; remark: listed apart in the source
EGFR (human) [26] = target: EGFR (human) (UniProt P00533); remark: listed apart in the source
EGFR (human) [27] = target: EGFR (human) (UniProt P00533); details: A431
PIK3CA (human) [28] = target: PIK3CA (human) (UniProt P42336); test: Inhibition of PIK3CA Kinase Activity in HeLa Cells
EGFR (human) [29] = target: EGFR (human) (UniProt P00533); remark: listed apart in the source
CDK2 (human) [30] = target: CDK2 (human) (UniProt P24941); test: Enzyme Assay
CDK2 (human) [31] = target: CDK2 (human) (UniProt P24941); test: Enzyme Assay; remark: listed apart in the source
EGFR (human) [32] = target: EGFR (human) (UniProt P00533); remark: listed apart in the source
[33] = target: PIK3CA (human), P42336 [Assessment of PIK3CA (Mutant) Kinase Activity in MCF-7.1 Cell Line]; test: Assessment of PIK3CA (Mutant) Kinase Activity in MCF-7.1 Cell Line; details: mcf-7
Chain of PIK3CA (human), P42336 [Assessment of PIK3CA (Mutant) Kinase Activity in MCF-7.1 Cell Line] (P42336 whole entry, looked up, change not shown): as the sequence (P42336 whole entry, looked up) above

EGFR (mouse) = EGFR (mouse) (UniProt P00533); details: balb/mk cells
MAPK14 (human) [34] = target: MAPK14 (human) (UniProt Q16539); test: Enzyme Assay
MAPK14 (human) [35] = target: MAPK14 (human) (UniProt Q16539); test: Enzyme Assay; remark: listed apart in the source

Chain of EGFR (P00533 whole entry, looked up): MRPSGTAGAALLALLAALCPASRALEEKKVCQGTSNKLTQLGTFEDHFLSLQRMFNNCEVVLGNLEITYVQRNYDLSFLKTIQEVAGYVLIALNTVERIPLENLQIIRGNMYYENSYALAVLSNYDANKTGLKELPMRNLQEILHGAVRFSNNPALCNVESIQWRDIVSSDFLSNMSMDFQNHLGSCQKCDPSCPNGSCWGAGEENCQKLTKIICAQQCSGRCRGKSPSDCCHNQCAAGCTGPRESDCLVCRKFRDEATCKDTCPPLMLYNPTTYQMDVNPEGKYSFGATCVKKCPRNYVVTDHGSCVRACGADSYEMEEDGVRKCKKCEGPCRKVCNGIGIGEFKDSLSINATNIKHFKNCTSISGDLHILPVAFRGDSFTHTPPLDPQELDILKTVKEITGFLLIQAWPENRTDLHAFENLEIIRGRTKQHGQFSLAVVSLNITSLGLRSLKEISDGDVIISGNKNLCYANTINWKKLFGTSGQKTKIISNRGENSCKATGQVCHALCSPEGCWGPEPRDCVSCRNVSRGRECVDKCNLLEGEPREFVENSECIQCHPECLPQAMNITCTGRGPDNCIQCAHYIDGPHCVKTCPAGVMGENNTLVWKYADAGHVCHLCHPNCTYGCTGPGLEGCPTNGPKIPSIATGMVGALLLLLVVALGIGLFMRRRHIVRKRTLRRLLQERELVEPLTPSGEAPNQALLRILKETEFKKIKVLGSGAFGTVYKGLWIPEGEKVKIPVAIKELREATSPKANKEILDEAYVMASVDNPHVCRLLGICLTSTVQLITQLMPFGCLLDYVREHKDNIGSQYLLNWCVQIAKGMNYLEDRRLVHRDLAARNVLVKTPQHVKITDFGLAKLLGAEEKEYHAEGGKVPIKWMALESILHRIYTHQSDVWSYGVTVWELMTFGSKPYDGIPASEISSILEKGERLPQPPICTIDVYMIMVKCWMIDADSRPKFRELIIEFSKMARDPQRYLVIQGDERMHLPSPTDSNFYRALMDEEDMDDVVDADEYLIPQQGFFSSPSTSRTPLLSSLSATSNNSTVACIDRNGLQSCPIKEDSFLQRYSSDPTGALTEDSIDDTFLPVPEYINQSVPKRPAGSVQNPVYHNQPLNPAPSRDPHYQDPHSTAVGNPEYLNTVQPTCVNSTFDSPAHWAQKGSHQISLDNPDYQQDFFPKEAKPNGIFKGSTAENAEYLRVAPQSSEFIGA
Chain of EGFR (human) (P00533 whole entry, looked up): as above

SMILES: COc1ccc(OC)c(COc2ccc(O)c(C(=O)O)c2)c1
IC50 (EGFR [4]): > 100000 nM

SMILES: CNCC#Cc1cccc(C(=O)c2cnn(-c3ccc(F)cc3)c2N)c1
inhibition [5]: 86%

SMILES: COC[C@H]1OC(=O)/C(=C/N(C)CCCN(C)C)C2=C(O)C(=O)C3=C([C@H](OC(C)=O)C[C@@]4(C)C3CC[C@@H]4O)[C@]21C (stereo partly drawn)
IC50 (PIK3CA (human) [6]): 6.4 nM
IC50 (PIK3CG (human)): 8 nM

SMILES: COc1ccc2c(-c3ccc(N4CCC(N)C4)cc3)nc(N)nc2c1C(C)C (stereo not drawn)
IC50 (CDK2 [9]): 296 nM
IC50 (CDK2 [10]): 2550 nM

SMILES: COc1cc2c(cc1OC)Oc1ncnc(Oc3cccc(Br)c3)c1N(C)C2
IC50 (EGFR (human) [12]): 4600 nM

SMILES: Cc1ccc(Sc2ccc3c(-c4c(Cl)cccc4Cl)c(=O)ncn3n2)cc1
IC50 (MAPK14 (human) [16]): 870 nM
IC50 (MAPK14 (human) [17]): 350 nM

SMILES: COc1ccc(-c2[nH]nc3c2C(=O)c2c(NC(=O)Nc4ccc(O)cc4)cccc2-3)cc1
GI50 (EGFR (human) [18]): > 10000 nM

SMILES: CCn1cnc2c(Nc3cccc(Cl)c3)nc(N[C@@H]3CCCC[C@@H]3N)nc21
IC50 (EGFR [19]): > 10000 nM

SMILES: CONC(=O)c1ccc(C)c(Nc2nc(NCC3CCCC(CN)C3)nc(NC3CCCCC3C)n2)c1 (stereo not drawn)
IC50 (MAPK14 (human) [20]): 2 nM
IC50 (MAPK14 (human) [21]): 2 nM

SMILES: Nc1nc(N)c2c(n1)[nH]c1cccc(Sc3ccccc3)c12
IC50 (EGFR (human) [27]): 49200 nM
EC50 (PIK3CA (human) [28]): 21600 nM

SMILES: Nc1nc(Nc2ccccc2)c2c(n1)[nH]c1ccccc12
IC50 (EGFR (human) [29]): 147 nM

SMILES: CO[C@H]1[C@@H](OC)C[C@H](C)[C@@H](OC)C2=CC(=O)C=C(NC(=O)/C(C)=C/C=C/[C@H](OC)[C@H](OC(N)=O)/C(C)=C/[C@@H]1C)C2=O
activity (CDK2 (human) [30]; 1.0 µM): 138%
activity (CDK2 (human) [30]; 10.0 µM): 83%
activity (CDK2 (human) [31]; 1.0 µM): 104%
activity (CDK2 (human) [31]; 10.0 µM): 91%

SMILES: Cc1cc(N2CCN(CCC#N)CC2)cc2[nH]c(-c3c(NC[C@@H](O)c4ccccc4Cl)cc[nH]c3=O)nc12
IC50 (EGFR (human) [32]): > 10000 nM

SMILES: Cc1nc(N)ncc1-c1nc(N2CCOCC2)c2sc(C(C)(C)O)cc2n1
IC50 [33]: 280 nM

SMILES: Cc1ccc(Sc2cccc3[nH]c4nc(N)nc(N)c4c23)cc1
IC50 (EGFR (human) [27]): 14100 nM
EC50 (PIK3CA (human) [28]): 12200 nM

SMILES: C[C@H](NC(=O)c1ccc(S(=O)(=O)Oc2ccc(/C=C/[N+](=O)[O-])cc2)cc1)C(=O)N[C@@H](C)C(=O)NCCN
IC50 (EGFR (mouse)): > 50000 nM

The next lines start with the values.

IC50 (CDK2 (human) [1]): 250 nM
SMILES: N=C(N)NS(=O)(=O)c1ccc(NC2=Cc3ccc(C(=O)c4c(Cl)cccc4Cl)cc3C2)cc1

IC50 (EGFR (human) [2]): 17 nM
IC50 (EGFR (human) [3]): 500 nM
SMILES: Cn1ccnc1S(=O)(=O)CCNCc1ccc(-c2ccc3ncnc(Nc4ccc(OCc5cccc(F)c5)c(Cl)c4)c3c2)o1

IC50 (EGFR (human) [7]): < 100 nM
SMILES: C=CC(=O)Nc1ccc(-n2nc(-c3ccc(Cl)c(Cl)c3)c3c(N)ncnc32)cc1

IC50 (EGFR (human) [8]): 36 nM
SMILES: CNC(=O)C1(N(C)Cc2cc3c(Nc4cccc(Cl)c4F)ncnc3cc2OC)CCN(C)CC1

IC50 (EGFR (human) [11]): 5900 nM
SMILES: COc1cc2ncnc(Oc3ccc(Br)cc3F)c2cc1OC

IC50 (EGFR (human) [13]): 17 nM
SMILES: COc1cc2ncnc(Nc3cccc(Cl)c3F)c2cc1OC1CCN(CC(=O)NCCN2CCCC2)CC1

IC50 (ROCK2 (human) [14]): < 1 nM
IC50 (ROCK2 (human) [15]): < 1 nM
SMILES: CC(C)OC(=O)Cc1cccc(NC(=O)c2cccc(-c3cc(C(=O)Nc4ccncc4F)ccc3CN)c2)c1

IC50 (EGFR (human) [2]): 19 nM
IC50 (EGFR (human) [3]): 1550 nM
SMILES: O=S(=O)(CCNCc1ccc(-c2ccc3ncnc(Nc4ccc(OCc5cccc(F)c5)c(Cl)c4)c3c2)o1)c1ccccn1

IC50 (ROCK2 (human) [22]): 2.66 nM
SMILES: COc1cccc([C@@H](C)NC(=O)c2ccc3c(c2)oc2c(C)nccc23)c1

IC50 (EGFR [23]): 10 nM
SMILES: COc1cc2ncnc(Nc3ccc(F)c(Cl)c3)c2cc1OCCN1CCOCC1

IC50 [24]: 5500 nM
SMILES: Brc1cccc(Nc2ccnc3ccccc23)c1

IC50 (EGFR (human) [25]): 8500 nM
IC50 (EGFR (human) [26]): 1130 nM
SMILES: COCC=CC(=O)Nc1ccc2ncnc(Nc3cccc(Br)c3)c2c1

IC50 (MAPK14 (human) [34]): 40 nM
IC50 (MAPK14 (human) [35]): 566 nM
SMILES: Cc1ccc(-c2ccnc(C(C)(C)O)n2)cc1-n1c(C)nc(OCc2ncc(F)cc2F)c(Cl)c1=O
